# According to patent EP0968649A1, “Adjuvants for novel dry herbicide formulations” (E.I. DU PONT DE NEMOURS AND COMPANY, priority 1998, dated 2000):
# What was measured:
# Format in all cases: in vivo
# [1] = tested on: velvetleaf (Abutilon theophrastic); experiment: Example 23: adjuvants tank mixed with chlorimuron ethyl, percent control from green fresh weights; settings: herbicide alone, no adjuvant; chlorimuron ethyl 1.5 g/ha; 187 L/ha; after two weeks
# Method: (§1) The effect of adjuvants on the activity of chlorimuron ethyl was investigated by tank mixing the adjuvants with the herbicide. Evaluation of the adjuvants was made by mixing the adjuvant with an herbicide solution and spraying the resulting solution at a rate of 1.5 g/ha chlorimuron ethyl in a spray volume of 187 L/ha on velvetleaf (Abutilon theophrastic). Four replications were made of each treatment. Plants were evaluated after two weeks by measuring their green fresh weights and convening these weight by comparison to an untreated control treatment into percent control values.
# [2] = tested on: giant foxtail (Setaria faberi); experiment: Example 21: adjuvants tank mixed with isopropylamine salt of glyphosate, percent control from green fresh weights; settings: herbicide alone, no added adjuvant; 210 g/ha isopropylamine salt of glyphosate; 187 L/ha; after two weeks
# Method: as §1, with “of the isopropylamine salt of glyphosate” for “of chlorimuron ethyl”, “of 210” for “of 1.5”, “g/ha isopropylamine salt of glyphosate” for “g/ha chlorimuron ethyl”, “on giant foxtail (Setaria faberi).” for “on velvetleaf (Abutilon theophrastic).”, “and converting” for “and convening”
# [3] = tested on: Alopecurus myosuroides (ALOMY); experiment: Example 8: field weed control, adjuvants mixed with flupyrsulfuron methyl, visual percent growth reduction and head count; settings: surfactant, where named, 0.1%; for % control ALOMY: 300 L/ha, 60 days after treatment; for Heads/m^2 ALOMY: at 85 days, untreated 784
# Source text: (§2) Evaluation of the adjuvants was made, in the field by mixing the adjuvant with flupyrsulfuron methyl herbicide and spraying the resulting solution at a rate of 2.5 to 20 g/ha flupyrsulfuron methyl in a spray volume of 300 L/ha on Alopecurus myosuroides (ALOMY). Surfactants were applied at a concentration of 0.1 % by weight of SC5045 or 0.1 % by volume of Trend® 90 per volume of spray solution. Three replications were made of each treatment. Weed control was visually assessed 60 days after treatment by evaluating the percent growth reduction, using a 0 to 100% scale where 0% equals no control, and 100% equals death of the weed and by counting the number of ALOMY heads per m^2, at 85 days.
# [4] = tested on: giant foxtail (Setaria faberi); experiment: Example 20: adjuvants tank mixed with nicosulfuron, percent control from green fresh weights; settings: herbicide alone, no adjuvant; nicosulfuron 3.5 g/ha; 187 L/ha; after two weeks
# Method: as §1, with “nicosulfuron” for “chlorimuron ethyl”, “a nicosulfuron” for “an herbicide”, “3.5” for “1.5”, “giant foxtail (Setaria faberi).” for “velvetleaf (Abutilon theophrastic).”, “treatment. The experiment was repeated three times.” for “treatment.”, “converting” for “convening”
# [5] = tested on: giant foxtail (Setaria faberi); experiment: Example 19: adjuvants tank mixed with nicosulfuron, percent control from green fresh weights; settings: Adjuvant Conc. 0 % w/w (no adjuvant); nicosulfuron 3.5 g/ha; 187 L/ha; after two weeks
# Method: as §1, with “nicosulfuron” for “chlorimuron ethyl”, “a nicosulfuron” for “an herbicide”, “3.5” for “1.5”, “giant foxtail (Setaria faberi). Three” for “velvetleaf (Abutilon theophrastic). Four”, “converting” for “convening”
# [6] = tested on: giant foxtail (Setaria faberi); experiment: Example 22: adjuvants tank mixed with quizalofop-ethyl, percent control from green fresh weights; settings: herbicide alone, no adjuvant; quizalofop-ethyl 3.5 g/ha; 187 L/ha; after two weeks
# Method: as §1, with “quizalofop-ethyl” for “chlorimuron ethyl”, “3.5” for “1.5”, “giant foxtail (Setaria faberi).” for “velvetleaf (Abutilon theophrastic).”, “treatment. The experiment was repeated two times.” for “treatment.”, “converting” for “convening”
# [7] = tested on: Alopecurus myosuroides (ALOMY); experiment: Example 6: field weed control, SCS5045 surfactant mixed with sulfosulfuron, visual percent growth reduction and head count; settings: where named, 0.1%; for % control ALOMY: 300 L/ha, 60 days after treatment; for Heads/m^2 ALOMY: counted 85 days after treatment, untreated 400
# Source text: as §2, with “SCS5045 surfactant” for “the adjuvants”, “surfactant” for “adjuvant”, “sulfosulfuron” for “flupyrsulfuron methyl”, “11.25” for “2.5”, “45 g /ha sulfosulfuron” for “20 g/ha flupyrsulfuron methyl”, “weed.” for “weed and by counting the number of ALOMY heads per m^2, at 85 days.”
# The number of ALOMY heads per m^2 was also counted 85 days after treatment.
# [8] = tested on: Veronica hederifolia (VERHE); experiment: Example 7: field weed control, SCS5045 surfactant mixed with metsulfuron methyl, visual percent growth reduction; settings: where named, 0.1%, 300 L/ha, 50 days after treatment
# Source text: Evaluation of SCS5045 surfactant was made, in the field by mixing the surfactant with metsulfuron methyl herbicide and spraying the resulting solution at a rate of 5.625 to 45 g/ha metsulfuron methyl in a spray volume of 300 L/ha on Veronica hederifolia (VERHE). Surfactants were applied at a concentration of 0.1% by weight (if the surfactant is dry) or by volume (if the surfactant is a liquid) of surfactant per volume of spray solution. Three replications were made of each treatment. Weed control was visually assessed 50 days after treatment by evaluating the percent growth reduction, using a 0 to 100% scale where 0% equals no control, and 100% equals death of the weed.
# [9] = tested on: common lambsquarters (Chenopodium album L.); experiment: Example 24: adjuvants tank mixed with thifensulfuron methyl, percent control from green fresh weights; settings: herbicide alone, no adjuvant; thifensulfuron methyl 2 g/ha; 187 L/ha; after two weeks
# Method: as §1, with “thifensulfuron methyl” for “chlorimuron ethyl”, “2” for “1.5”, “common lambsquarters (Chenopodium album L.).” for “velvetleaf (Abutilon theophrastic).”, “converting” for “convening”
# [10] = tested on: Veronica agrestis (VERAG); experiment: Example 5: weed control, SCS5045 surfactant mixed with tribenuron methyl, visual percent growth reduction; settings: where named, 0.1%, 300 L/ha, 70 days after treatment
# Source text: (§3) Evaluation of SCS5045 surfactant was made by mixing the surfactant with tribenuron methyl herbicide and spraying the resulting solution at a rate of 5.625 to 45 g/ha tribenuron methyl in a spray volume of 300 L/ha on Viola arvensis (VIOAR) and Veronica agrestis (VERAG). Surfactants were applied at a concentration of 0.1% by weight (if the surfactant is dry) or by volume (if the surfactant is a liquid) of surfactant per volume of spray solution. Three replications were made of each treatment. Weed control was visually assessed 70 days after treatment by evaluating the percent growth reduction, using a 0 to 100% scale where 0% equals no control, and 100% equals death of the weed.
# Viola arvensis (VIOAR) = experiment: as above; settings: where named, 0.1%, 300 L/ha, 70 days after treatment
# Source text: as §3
# [11] = flupyrsulfuron methyl 2.5 g herbicide /ha
# [12] = flupyrsulfuron methyl 5 g herbicide /ha
# [13] = flupyrsulfuron methyl 10 g herbicide /ha
# [14] = flupyrsulfuron methyl 20 g herbicide /ha
# [15] = sulfosulfuron 11.25 g herbicide /ha
# [16] = sulfosulfuron 22.5 g herbicide /ha
# [17] = sulfosulfuron 33.75 g herbicide /ha
# [18] = sulfosulfuron 45 g herbicide /ha
# [19] = tribenuron methyl 5.625 g ai/ha
# [20] = tribenuron methyl 11.25 g ai/ha
smiles,measurement,setting,value
"CCOC(=O)c1ccccc1S(=O)(=O)NC(=O)Nc1nc(Cl)cc(OC)n1 [Chlorimuron Alone, chlorimuron ethyl]",% Velvetleaf Control,[1],53%
"CC(C)N.O=C(O)CNCP(=O)(O)O [Glyphosate IPA Alone, isopropylamine salt of glyphosate]",% Control,[2],85%
"COC(=O)c1ccc(C(F)(F)F)nc1S(=O)(=O)NC(=O)Nc1nc(OC)cc(OC)n1 [KE459, flupyrsulfuron methyl]",% control ALOMY,[3]; [11],63%
same,Heads/m^2 ALOMY,[3]; [11],224 Heads/m^2
same,% control ALOMY,[3]; [12],73%
same,Heads/m^2 ALOMY,[3]; [12],164 Heads/m^2
same,% control ALOMY,[3]; [13],77%
same,Heads/m^2 ALOMY,[3]; [13],16 Heads/m^2
same,% control ALOMY,[3]; [14],88%
same,Heads/m^2 ALOMY,[3]; [14],8 Heads/m^2
"COc1cc(OC)nc(NC(=O)NS(=O)(=O)c2ncccc2C(=O)N(C)C)n1 [Nicosulfuron Alone, nicosulfuron]",% Control,[4],2%
same,percent control,[5],0%
"CCOC(=O)C(C)Oc1ccc(Oc2cnc3cc(Cl)ccc3n2)cc1 (stereo not shown) [Quizalofop Ethyl Alone, quizalofop-ethyl]",% Control,[6],7%
"CCS(=O)(=O)c1nc2ccccn2c1S(=O)(=O)NC(=O)Nc1nc(OC)cc(OC)n1 [Sulfosulfuron, sulfosulfuron]",% control ALOMY,[7]; [15],33%
same,Heads/m^2 ALOMY,[7]; [15],209 Heads/m^2
same,% control ALOMY,[7]; [16],47%
same,Heads/m^2 ALOMY,[7]; [16],76 Heads/m^2
same,% control ALOMY,[7]; [17],60%
same,Heads/m^2 ALOMY,[7]; [17],25 Heads/m^2
same,% control ALOMY,[7]; [18],77%
same,Heads/m^2 ALOMY,[7]; [18],6 Heads/m^2
"COC(=O)c1ccccc1S(=O)(=O)NC(=O)Nc1nc(C)nc(OC)n1 [T6376, metsulfuron methyl]",VERHE (percent growth reduction),[8]; metsulfuron methyl 5.625 g herbicide /ha,33%
same,VERHE (percent growth reduction),[8]; metsulfuron methyl 11.25 g herbicide /ha,33%
same,VERHE (percent growth reduction),[8]; metsulfuron methyl 22.5 g herbicide /ha,52%
same,VERHE (percent growth reduction),[8]; metsulfuron methyl 45 g herbicide /ha,100%
"COC(=O)c1sccc1S(=O)(=O)NC(=O)Nc1nc(C)nc(OC)n1 [Thifensulfuron Alone, thifensulfuron methyl]",% Common Lambsquarters Control,[9],11%
"COC(=O)c1ccccc1S(=O)(=O)NC(=O)N(C)c1nc(C)nc(OC)n1 [Tribenuron methyl, tribenuron methyl]",% control VERAG,[10]; [19],47%
same,% control VERAG,[10]; [20],60%
same,% control VERAG,[10]; tribenuron methyl 22.5 g ai/ha,63%
same,% control VERAG,[10]; tribenuron methyl 45 g ai/ha,87%
same,% control VIOAR,Viola arvensis (VIOAR); [19],27%
same,% control VIOAR,Viola arvensis (VIOAR); [20],75%
same,% control VIOAR,Viola arvensis (VIOAR); tribenuron methyl 22.5 g ai/ha,80%
same,% control VIOAR,Viola arvensis (VIOAR); tribenuron methyl 45 g ai/ha,99%
